Assay results taken from article PMC6627486, “Ipomoeassin F Binds Sec61α to Inhibit Protein Translocation” (Journal of the American Chemical Society, 2019).

What was measured:
[1] = system: secNLuc-ATZ secretion in U2-OS cells; experiment: U2-OS secNLuc-ATZ secretion assay; assay type: cell-based; conditions: Homo sapiens, U2OS, 24 h, read-out: secNLuc-ATZ secretion inhibition EC50
Experimental: The secNLuc-ATZ assay has been described elsewhere.18 Briefly, U2-OS cells stably expressing secNLuc-ATZ were cultured in McCoy’s 5A supplemented with 10% bovine growth serum (Hyclone SH30540.03), 50 units/mL penicillin, and 50 µg/mL streptomycin and plated into 1536-well black, clear-bottom treatment plates (Aurora Microplates #ABI121000A) at 1200 cells/well in 5 µL volume using a Multidrop Combi dispenser (ThermoFisher). Cells were returned to 37 °C for 1 h to adhere and compound or vehicle control was added to wells using a 1536-well pin-tool transfer device (Wako Automation, San Diego). Cells were incubated for 24 h and secNLuc-ATZ-containing media was transferred using an ATS-100 acoustic dispenser (EDC Biosystems, Fremont, CA) from the treatment plate to a white, solid-bottom 1536-well recipient plate (Greiner Bio One #789175-F) containing 3 µL/well of 1X PBS. […]
Cells were incubated at 37 °C for 24 h and secreted luciferase was detected by adding 1 µL of coelenterazine substrate to each well using a BioRAPTR FRD workstation. […]
Luminescence was measured using a ViewLux microplate imager equipped with clear filters.
For cell viability assays, cells were cultured, plated, and treated with test compounds as outlined for the secretion assays. 48 h after treatment, viability was assessed using a CellTiter-Glo assay by adding 3

[2] = system: GLuc secretion in SH-SY5Y cells; experiment: SH-SY5Y GLuc secretion assay; assay type: cell-based; conditions: Homo sapiens, read-out: GLuc secretion inhibition EC50
MDA-MB-231 cells = experiment: Live cell imaging with fluorescent probe 12; assay type: cell-based, human; conditions: 30 min preincubation, 100-fold excess competitor
Experimental: MDA-MB-231 cells were seeded on fibronectin-coated coverslips at 70% confluency in a 48-well plate and cultured at 37 °C and 5% CO2. After 24 h, culture medium was replaced with fresh medium containing a 20 µM competitor or an equal volume of DMSO vehicle for 30 min at 37 °C and 5% CO2, followed by addition of 0.2 µM (final concentration) fluorescent probe 12. After 1 h incubation at 37 °C and 5% CO2, the coverslips were mounted onto a glass slide with a mounting medium with or without 0.5 µg/ml DAPI.
The fluorescent images were acquired with a confocal microscope (Leica TCS SP5) using 405 nm excitation and 562 nm excitation. For the ER co-localization studies, 1 uM ER-Tracker™ Blue-White DPX was added to the medium after 1 h incubation with probe 12. After 5 min incubation, the coverslips were mounted onto a glass slide and the images were acquired as described above.
CT7 photo-affinity labeling and click chemistry were done as previously described.14 Briefly, SRMs (sheep rough microsomes, isolated as described in reference15) containing 100 nM Sec61 were treated with 10 µM ipomoeassin F/mycolactone or 1% DMSO for 30 min at 0°C, followed by incubation with 100 nM CT7 for 10 min RT. Samples were then photolyzed for 10 min and crosslinked proteins were detected by click chemistry, SDS-PAGE, and in-gel fluorescent scanning (Typhoon Trio, GE Healthcare). […]

HCT-116 cells = experiment: Metabolic labelling of nascent proteins in HCT116 cells; assay type: cell-based, human
Experimental: Metabolic Labelling Assays in HCT116 Cells
HCT116 cells were counted using an automated cell counter (BioRad TC20) immediately prior to each experiment. 3 ml of HCT116 cells at a density of 0.166x10^6 cells/mL were seeded to 6-well plates (0.5x10^6 cells/well) and then incubated at 37 °C and 5% CO 2 for 24 h. The compounds were dissolved in DMSO to make drug stocks (10 mM). The stock solutions were diluted with DMEM high glucose culture medium lacking methionine and cysteine to make a fresh working solution immediately prior to each test. Cells were washed twice and 1ml of fresh DMEM lacking methionine and cysteine was added to each well.
Subsequently, the cells were treated with 250 µl of compound solutions in a total volume of 1 ,250 µl/well.
The plate was then incubated at 37 °C and 5% CO 2 for 30 min before 100 µCi 35S-labelled methionine/cysteine was added (Expre35s35s protein labelling mix). Plates were incubated for a further 30 min, then media collected and cells harvested by scraping after four washes in ice-cold PBS. Total protein was acquired by RIPA extraction from the cell pellet, cytoplasmic fraction was acquired by partial permeabilization of the outer cell membranes with 0.15% Digitonin followed by centrifugation, secreted proteins were acquired by TCA precipitation of the media. […]

## C/C=C(\C)C(=O)O[C@@H]1[C@@H](O)[C@@H]2O[C@H]3[C@H](O[C@@H](CCCCC)CCCCCCC(=O)CCC(=O)OC[C@@H](O2)[C@H]1OC(=O)/C=C/c1ccccc1)O[C@H](C)[C@H](OC(C)=O)[C@@H]3O [ipomoeassin F]
[1]
  EC50: ~5 nM
[2]
  EC50: ~120 nM
MDA-MB-231 cells
  effect of competitor on fluorescence signal of 12: almost completely abolished
HCT-116 cells; HCT-116, 100 nM, 35S labelling
  inhibition of production of secreted proteins: strong inhibition
HCT-116 cells; HCT-116, 35S labelling
  nascent protein biogenesis in total cellular lysates and cytosolic fractions: lack of inhibition
